Data: US20190100534A1, “Cephem Compounds with Latent Reactive Groups” (Gladius Pharmaceuticals, Inc., priority 2017, published 2019)

Tests used:
Format in all cases: cell-based
[1] = tested on: Isogenic E. coli J58 strain carrying SHV-1; assay: MIC determination, isogenic E. coli strains; conditions: Escherichia coli, 18 h, read-out: Mimimum Inhibitory Concentrations, SHV-1
Procedure: (§1) Sterile technique was used throughout these experiments. Suspensions of organisms were removed from storage (−80° C.) and partially thawed. Partially thawed organisms (1 μL) were inoculated into 3 mL sterile LB Broth in a sterile culture tube and capped, then cultured at 37° C. with shaking for 4-5 hours until the optical density at 600 nm (OD600) was greater than 0.1 on a single beam spectrophotometer.
(§2) The concentration of organisms was adjusted to 0.08-0.1 OD600 (0.5 McFarland units) by dilution with sterile cation-adjusted Meuller-Hinton (CAMH) broth. The suspensions were used within 30 minutes of preparation.
(§3) A stock solution was made of each test compound by measuring 6.4 mg of the compound on an analytical balance and dissolving it in DMSO (1 mL) to get a transparent solution. The solutions were stored at −20° C. and thawed prior to use.
(§4) Sterile CAMH broth (200 μL) containing 20 μM Apo-Transferrin was pipetted into the first row of 8 columns of a sterile, round-bottomed, transparent, 96-well microplate using an 8-channel pipette equipped with sterile tips. One hundred μL was pipetted into the wells of the remaining 11 rows.
(§5) With an 8-channel pipette equipped with sterile tips, 100 μL of the first row solution was transferred to the second row and mixed. The process was repeated for the second to third rows and continued through row 11. One hundred μL from row 11 was removed and discarded so that all 12 rows contained 100 μL. Row 12 contained no compound and rows 1-11 contained 64, 32, 16, 8, 4, 2, 1, 0.5, 0.25, 0.125, […] of a given compound.
(§6) Inoculant suspensions (0.5 μL) were added to the 12 wells of each column. The plates were then covered and incubated at 37° C. overnight for 18 hours.
(§7) For each organism the MIC was determined by identifying the transparent well with the lowest test compound concentration.
SHV-1 (Class A, Group 2b beta-lactamase, hydrolyzes penicillins and early cephalosporins);
(§8) The gene sequence for each beta-lactamase enzyme was synthesized and inserted into the pBC-SK(+) plasmid by GenScript, a commercial service. E. coli J53 was transformed with each plasmid via electroporation and resistant transformants were selected on agar plates containing 50 micrograms/mL ampicillin. The selected transformants were stored at −80 degrees C. in 20% glycerol.

[2] = tested on: Isogenic E. coli J58 strain carrying TEM-26; assay: MIC determination, isogenic E. coli strains; conditions: Escherichia coli, 18 h, read-out: Mimimum Inhibitory Concentrations, TEM-26
Procedure: as §1, §2, §3, §4, §5, §6, §7
TEM-26 (Group 2be beta-lactamase, hydrolyzes extended spectrum cephalosporins and monobactams), [25];
as §8

[3] = tested on: Isogenic E. coli J58 strain carrying KPC-2; assay: MIC determination, isogenic E. coli strains; conditions: Escherichia coli, 18 h, read-out: Mimimum Inhibitory Concentrations, KPC-2
Procedure: as §1, §2, §3, §4, §5, §6, §7
(§9) KPC-2 and KPC-3 (Class A, Group 2f, carbapenemases);
as §8

[4] = tested on: Isogenic E. coli J58 strain carrying KPC-3; assay: MIC determination, isogenic E. coli strains; conditions: Escherichia coli, 18 h, read-out: Mimimum Inhibitory Concentrations, KPC-3
Procedure: as §1, §2, §3, §4, §5, §6, §7, §9, §8

[5] = tested on: Isogenic E. coli J58 strain carrying IMP-1; assay: MIC determination, isogenic E. coli strains; conditions: Escherichia coli, 18 h, read-out: Mimimum Inhibitory Concentrations, IMP-1
Procedure: as §1, §2, §3, §4, §5, §6, §7
IMP-1 (Group 3a carbapenemase, metallo-beta-Lactamase).
as §8

[6] = tested on: Pseudomonas aeruginosa (PA); assay: MIC determination; conditions: Pseudomonas aeruginosa, 18 h, read-out: Minimum Inhibitory Concentrations, PA
Procedure: as §1, §2, §3, §4, §5, §6, §7

[7] = tested on: Pseudomonas aeruginosa PA-RR-(G7294437); assay: MIC determination; conditions: Pseudomonas aeruginosa, 18 h, read-out: Minimum Inhibitory Concentrations, PA-RR-(G7294437)
Procedure: as §1, §2, §3, §4, §5, §6, §7

[8] = tested on: Pseudomonas aeruginosa PA (RR-1); assay: MIC determination; conditions: Pseudomonas aeruginosa, 18 h, read-out: Minimum Inhibitory Concentrations, PA (RR-1)
Procedure: as §1, §2, §3, §4, §5, §6, §7

[9] = tested on: Pseudomonas aeruginosa PA (URMC-2); assay: MIC determination; conditions: Pseudomonas aeruginosa, 18 h, read-out: Minimum Inhibitory Concentrations, PA (URMC-2)
Procedure: as §1, §2, §3, §4, §5, §6, §7

[10] = tested on: Pseudomonas aeruginosa PA-RR-(980151052); assay: MIC determination; conditions: Pseudomonas aeruginosa, 18 h, read-out: Minimum Inhibitory Concentrations, PA-RR-(980151052)
Procedure: as §1, §2, §3, §4, §5, §6, §7

[11] = tested on: Pseudomonas aeruginosa PA (URMC-3); assay: MIC determination; conditions: Pseudomonas aeruginosa, 18 h, read-out: Minimum Inhibitory Concentrations, PA (URMC-3)
Procedure: as §1, §2, §3, §4, §5, §6, §7

[12] = tested on: Pseudomonas aeruginosa PA (RR-2); assay: MIC determination; conditions: Pseudomonas aeruginosa, 18 h, read-out: Minimum Inhibitory Concentrations, PA (RR-2)
Procedure: as §1, §2, §3, §4, §5, §6, §7

[13] = tested on: Pseudomonas aeruginosa PA-RR-(purple Fre D); assay: MIC determination; conditions: Pseudomonas aeruginosa, CAMH broth, 20 μM Apo-Transferrin, 37° C., 18 hours, read-out: Minimum Inhibitory Concentrations, PA-RR-(purple Fre D)
Procedure: as §1, §2, §3, §4, §5, §6, §7

[14] = tested on: Pseudomonas aeruginosa PA-RR-(G8062859); assay: MIC determination; conditions: Pseudomonas aeruginosa, 18 h, read-out: Minimum Inhibitory Concentrations, PA-RR-(G8062859)
Procedure: as §1, §2, §3, §4, §5, §6, §7

[15] = tested on: Pseudomonas aeruginosa PA-RR-(98023895); assay: MIC determination; conditions: Pseudomonas aeruginosa, 18 h, read-out: Minimum Inhibitory Concentrations, PA-RR-(98023895)
Procedure: as §1, §2, §3, §4, §5, §6, §7

[16] = tested on: Pseudomonas aeruginosa PA-RR-(G7304100); assay: MIC determination; conditions: Pseudomonas aeruginosa, 18 h, read-out: Minimum Inhibitory Concentrations, PA-RR-(G7304100)
Procedure: as §1, §2, §3, §4, §5, §6, §7

[17] = tested on: Pseudomonas aeruginosa PA-RR-(G7305586); assay: MIC determination; conditions: Pseudomonas aeruginosa, 18 h, read-out: Minimum Inhibitory Concentrations, PA-RR-(G7305586)
Procedure: as §1, §2, §3, §4, §5, §6, §7

[18] = tested on: Isogenic E. coli J58 strain carrying VIM-2; assay: MIC determination, isogenic E. coli strains; conditions: Escherichia coli, 18 h, read-out: Mimimum Inhibitory Concentrations, VIM-2
Procedure: as §1, §2, §3, §4, §5, §6, §7
VIM-2 (Group 3a carbapenemase, metallo-beta-lactamase); and
as §8

E. coli J53 Alone = assay: MIC determination, isogenic E. coli strains; conditions: for MIC: Escherichia coli, J53ALONE, 18 h, read-out: Mimimum Inhibitory Concentrations, J53 Alone; for Mimimum Inhibitory Concentrations, J53 Alone: Table 4-2, CAMH broth, 20 μM Apo-Transferrin, 37° C., 18 hours
Procedure: as §1, §2, §3, §4, §5, §6, §7, §8

[19] = tested on: Isogenic E. coli J58 strain carrying DHA-1; assay: MIC determination, isogenic E. coli strains; conditions: Escherichia coli, 18 h, read-out: Mimimum Inhibitory Concentrations, DHA-1
Procedure: as §1, §2, §3, §4, §5, §6, §7, §8

[20] = tested on: Isogenic E. coli J58 strain carrying NDM-1; assay: MIC determination, isogenic E. coli strains; conditions: Escherichia coli, 18 h, read-out: Mimimum Inhibitory Concentrations, NDM-1
Procedure: as §1, §2, §3, §4, §5, §6, §7
NDM-1 (Group 3a carbapenemase, broad spectrum divalent Zn^++ metallo-Beta-Lactamase);
as §8

[21] = tested on: Isogenic E. coli J58 strain carrying CTX-M-14; assay: MIC determination, isogenic E. coli strains; conditions: Escherichia coli, 18 h, read-out: Mimimum Inhibitory Concentrations, CTX-M-14
Procedure: as §1, §2, §3, §4, §5, §6, §7
(§10) CTX-M-14 and CTX-M-15 (Class A, Group 2be beta-lactamases, hydrolyzes extended spectrum cephalosporins and monobactams);
as §8

[22] = tested on: Isogenic E. coli J58 strain carrying CTX-M-15; assay: MIC determination, isogenic E. coli strains; conditions: Escherichia coli, 18 h, read-out: Mimimum Inhibitory Concentrations, CTX-M-15
Procedure: as §1, §2, §3, §4, §5, §6, §7, §10, §8

Structure (SMILES)	MIC [1]	MIC [2]	MIC [3]	MIC [4]	MIC [5]	MIC [18]	MIC (E. coli J53 Alone)	Mimimum Inhibitory Concentrations, J53 Alone (E. coli J53 Alone)	MIC [19]	MIC [20]	MIC [21]	MIC [22]	other results
CC[N+]1(Cc2ccc(C=CC3=C(C(=O)O)N4C(=O)[C@@H](NC(=O)/C(=N\OC(C)(C)C(=O)O)c5csc(N)n5)[C@H]4SC3)cc2)CCc2cc(O)c(O)cc2C1 (mixture of isomers) [Compound 423, 2-(4-((E/Z)-2-((6R,7R)-7-((Z)-2-(2-aminothiazol-4-yl)-2-(((2-carboxypropan-2-yl)oxy)imino)acetamido)-2-carboxy-8-oxo-5-thia-1-azabicyclo[4.2.0]oct-2-en-3-yl)vinyl)benzyl)-2-ethyl-6,7-dihydroxy-1,2,3,4-tetrahydroisoquinolin-2-ium]	2 µg/mL	2 µg/mL	8 µg/mL	4 µg/mL	32 µg/mL	0.5 µg/mL	0.25 µg/mL	0.25 microgram/mL	1 µg/mL	> 64 µg/mL	2 µg/mL	2 µg/mL	MIC [6]: 2 µg/mL; MIC [7]: 0.5 µg/mL; MIC [8]: 2 µg/mL; MIC [9]: 2 µg/mL; MIC [10]: 2 µg/mL; MIC [11]: ≤ 0.06 µg/mL; MIC [12]: 2 µg/mL; MIC [13]: 1 µg/mL; MIC [14]: 2 µg/mL; MIC [15]: 8 µg/mL; MIC [16]: ≤ 0.06 µg/mL; MIC [17]: 8 µg/mL
CC(C)(O/N=C(\C(=O)N[C@@H]1C(=O)N2C(C(=O)O)=C(C=Cc3ccc(C[N+]4(C)CCc5c(ccc(O)c5O)C4)cc3)CS[C@H]12)c1csc(N)n1)C(=O)O (mixture of isomers) [Compound 441, 2-(4-((E/Z)-2-((6R,7R)-7-((Z)-2-(2-aminothiazol-4-yl)-2-(((2-carboxypropan-2-yl)oxy)imino)acetamido)-2-carboxy-8-oxo-5-thia-1-azabicyclo[4.2.0]oct-2-en-3-yl)vinyl)benzyl)-5,6-dihydroxy-2-methyl-1,2,3,4-tetrahydroisoquinolin-2-ium]	1 µg/mL	1 µg/mL	4 µg/mL	1 µg/mL	1 µg/mL	0.25 µg/mL	0.25 µg/mL	0.25 microgram/mL	0.5 µg/mL	> 64 µg/mL	1 µg/mL	0.5 µg/mL	–
